Results as given in patent publication US9107415B2, “2-(substituted-phenyl)-cyclopentane-1,3-dione compounds, and derivatives thereof” (Syngenta Limited, priority 2011, dated 2015).

Tests used:
Type in all cases: in vivo
Avena fatua (AVEFA) [1] = assay: Biological Example 4B (not-previously-formulated compounds) post-emergence herbicidal activity on grassy weeds; conditions: 14 DAA, technical compound in IF50 + Adigor, mean of two
Method: (§1) Seeds of a variety of test species are sown in standard soil in pots. After cultivation for 14 days under controlled conditions in a glasshouse (at 22/16°C., day/night; 16 hours light; 65% humidity), the plants are sprayed with an aqueous spray solution derived from the formulation of the technical active ingredient dissolved in acetone plus IF50 containing
(§2) 10.56 wt % Emulsogen™EL (castor oil ethoxylate, CAS Registry number 61791-12-6)
(§3) 42.22 wt % N-Methyl pyrrolidone
(§4) 42.22 wt % dipropylene glycol monoethyl ether
(§5) at a 1:20 ratio of (technical active ingredient:IF50). The adjuvant Adigor™(an adjuvant containing inter alia methylated rapeseed oil, e.g. available from Syngenta) is added to form a 0.5% v/v solution. The test plants are then grown on under controlled conditions in the glasshouse (at 22/16°C., day/night; 16 hours light; 65% humidity) and are watered twice daily. After 14 days the test is evaluated (100%=total damage to plant; 0%=no damage to plant).
(§6) […] Herbicidal activity (phytotoxicity) is evaluated visually, and an assessed percentage phytotoxicity score is given for each herbicidal application on each plant species (with 100%=total damage to plant; 0%=no damage to plant). Two repetitions are made for each experiment, and the mean herbicidal activity (phytotoxicity) data is reported.
Test plants: Avena fatua (AVEFA), Lolium multiflorum (LOLMU), Setaria viridis (SETVI), Poa annua (POAAN), Alopecurus myosuroides (ALOMY). All five of these are grassy monocotyledonous weeds.

Winter Barley “Suzuka” = assay: Biological Example 4B post-emergence phytotoxicity on cereal crops; conditions: 14 DAA, technical compound in IF50 + Adigor, mean of two
Method: as §1, §2, §3, §4, §5, §6

Winter Wheat “Hereward” = assay: as above; conditions: 14 DAA, technical compound in IF50 + Adigor, mean of two
Method: as §1, §2, §3, §4, §5, §6

Avena fatua (AVEFA) [2] = assay: Biological Example 1 glasshouse screen, pre-emergence herbicidal activity; conditions: 312 h, application rate 250 g/ha, evaluated after 13 days, read-out: AVEFA percentage phytotoxicity
Summary of the method: (§7)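 Pots in a glasshouse (24/16°C day/night, 14 h light, 65% humidity) were sprayed one day after sowing (pre-emergence) or after 8 days (post-emergence), using acetone/water (50:50) with 0.5% Tween 20. Phytotoxicity was scored visually as % damage (0-100) 13 days after application.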

Lolium perenne (LOLPE) [3] = assay: as above; conditions: 312 h, application rate 250 g/ha, evaluated after 13 days, read-out: LOLPE percentage phytotoxicity
Summary of the method: as §7

[4] = test system: Triticum aestivum, wheat (TRZAW); assay: Biological Example 3 glasshouse screen, post-emergence, phytotoxicity on wheat; conditions: 360 h, 15 DAA, no safener, read-out: TRZAW percentage phytotoxicity; for pest or weed control at 30 g/ha: application rate 30 g/ha; for pest or weed control at 60 g/ha: application rate 60 g/ha
Summary of the method: (§8)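 Post-em spray, 12 d after sowing; a.i.:IF50 1:20 in acetone, diluted in water + 0.2% v/v X-77; no cloquintocet-mexyl. Glasshouse 24/18 or 20/16°C d/n, 16 h light, 65% RH, watered twice daily. Visual % phytotox at 15 DAA.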

Avena fatua (AVEFA) [5] = assay: Biological Example 1 glasshouse screen, post-emergence herbicidal activity; conditions: 312 h, application rate 250 g/ha, evaluated after 13 days, read-out: AVEFA percentage phytotoxicity
Summary of the method: as §7

Lolium perenne (LOLPE) [6] = assay: as above; conditions: 312 h, application rate 250 g/ha, evaluated after 13 days, read-out: LOLPE percentage phytotoxicity
Summary of the method: as §7

[7] = test system: Avena fatua, wild oats (AVEFA); assay: Biological Example 3 glasshouse screen, post-emergence herbicidal activity; conditions: 360 h, 15 DAA, no safener, read-out: AVEFA percentage phytotoxicity; for pest or weed control at 30 g/ha: application rate 30 g/ha; for pest or weed control at 60 g/ha: application rate 60 g/ha
Summary of the method: as §8

[8] = test system: Echinochloa crus galli, barnyardgrass (ECHCG); assay: as above; conditions: 360 h, 15 DAA, no safener, read-out: ECHCG percentage phytotoxicity; for pest or weed control at 30 g/ha: application rate 30 g/ha; for pest or weed control at 60 g/ha: application rate 60 g/ha
Summary of the method: as §8

[9] = test system: Alopecurus myosuroides, blackgrass (ALOMY); assay: as above; conditions: 360 h, 15 DAA, no safener, read-out: ALOMY percentage phytotoxicity; for pest or weed control at 30 g/ha: application rate 30 g/ha; for pest or weed control at 60 g/ha: application rate 60 g/ha
Summary of the method: as §8

[10] = 30 g/ha, cloquintocet-mexyl 50 g/ha
[11] = 60 g/ha, cloquintocet-mexyl 0 g/ha
[12] = 60 g/ha, cloquintocet-mexyl 50 g/ha
[13] = 15 g/ha, cloquintocet-mexyl 50 g/ha

| SMILES | AVEFA % phytotoxicity (Avena fatua (AVEFA) [1]; [10]) [%] | AVEFA % phytotoxicity (Avena fatua (AVEFA) [1]; [11]) [%] | AVEFA % phytotoxicity (Avena fatua (AVEFA) [1]; [12]) [%] | Winter Barley “Suzuka” phytotoxicity (%) (Winter Barley “Suzuka”; [10]) | Winter Barley “Suzuka” phytotoxicity (%) (Winter Barley “Suzuka”; [11]) | Winter Barley “Suzuka” phytotoxicity (%) (Winter Barley “Suzuka”; [12]) | Winter Wheat “Hereward” phytotoxicity (%) (Winter Wheat “Hereward”; [10]) | Winter Wheat “Hereward” phytotoxicity (%) (Winter Wheat “Hereward”; [11]) | Winter Wheat “Hereward” phytotoxicity (%) (Winter Wheat “Hereward”; [12]) | pest or weed control at 250 g/ha (Avena fatua (AVEFA) [2]) [%] | pest or weed control at 250 g/ha (Lolium perenne (LOLPE) [3]) [%] | pest or weed control at 30 g/ha [4] [%] | pest or weed control at 250 g/ha (Avena fatua (AVEFA) [5]) [%] | pest or weed control at 250 g/ha (Lolium perenne (LOLPE) [6]) [%] | pest or weed control at 30 g/ha [7] [%] | pest or weed control at 30 g/ha [8] [%] | pest or weed control at 30 g/ha [9] [%] | pest or weed control at 60 g/ha [4] [%] | pest or weed control at 60 g/ha [7] [%] | pest or weed control at 60 g/ha [8] [%] | further results |
| --- | --- | --- | --- | --- | --- | --- | --- | --- | --- | --- | --- | --- | --- | --- | --- | --- | --- | --- | --- | --- | --- |
| CC#Cc1cc(C)c(C2=C(O)CC(Cc3ccc(C)cn3)C2=O)c(C)c1 (centres unmarked) [Compound A-8] | 45 | 97 | 95 | 9 | 73 | 60 | 13 | 63 | 45 | 100 | 100 | 40 | 100 | 100 | 70 | 70 | 80 | – | – | – | – |
| CC#Cc1cc(C)c(C2=C(O)CC(Cc3ccc(F)cn3)C2=O)c(C)c1 (centres unmarked) [Compound A-11] | 50 | 93 | 88 | 8 | 68 | 33 | 3 | 55 | 8 | 70 | 100 | 40 | 90 | 100 | 70 | 100 | 90 | 50 | 100 | 100 | pest or weed control at 60 g/ha [9]: 100% |
| CC#Cc1cc(C)c(C2=C(O)CC(Cc3ccc(C#N)cn3)C2=O)c(C)c1 (centres unmarked) [Compound A-14] | 38 | 83 | 80 | 45 | 97 | 93 | 30 | 80 | 78 | 50 | 90 | 20 | 90 | 100 | 0 | 90 | 70 | 40 | 60 | 90 | pest or weed control at 60 g/ha [9]: 90% |
| CC#Cc1cc(C)c(C2C(=O)CC(Cc3ccn(C)n3)C2=O)c(C)c1 (centres unmarked) [Compound A-19] | 90 | 99 | 99 | 55 | 97 | 95 | 65 | 89 | 75 | 100 | 100 | 70 | 100 | 100 | 90 | 100 | 100 | – | – | – | AVEFA % phytotoxicity (Avena fatua (AVEFA) [1]; [13]): 88%; Winter Barley “Suzuka” phytotoxicity (%) (Winter Barley “Suzuka”; [13]): 3%; Winter Wheat “Hereward” phytotoxicity (%) (Winter Wheat “Hereward”; [13]): 58%; pest or weed control at 15 g/ha ([4]; application rate 15 g/ha): 20%; pest or weed control at 15 g/ha ([7]; application rate 15 g/ha): 40%; pest or weed control at 15 g/ha ([8]; application rate 15 g/ha): 70%; pest or weed control at 15 g/ha ([9]; application rate 15 g/ha): 80% |
